In EP0055702B1, “Antithrombotic treatment” (priority 1980, dated 1982):

Legend:
Prothrombin = target: T1, Prothrombin (Homo sapiens, UniProt P00734); test: Prothrombin (Factor II) assay, Example 4; assay type: biochemical; conditions: for Prothrombin: Control 87
T1 construct: from tissue; host or cells: human plasma
Source text: (§1) The evaluation procedure used is that described in "Human Blood Coagulation, Haemostasis and Thrombosis", edited by Rosemary Biggs, published by Blackwell Scientific Publications, Oxford, England (2nd Edition), pages 670-705, 1976. […]

F VII = target: T2, F VII (Homo sapiens, UniProt P08709); test: Factor VII assay, Example 4; assay type: biochemical; conditions: for F VII: Control 73
T2 construct: from tissue; host or cells: human plasma
T2 sequence (P08709 61-466): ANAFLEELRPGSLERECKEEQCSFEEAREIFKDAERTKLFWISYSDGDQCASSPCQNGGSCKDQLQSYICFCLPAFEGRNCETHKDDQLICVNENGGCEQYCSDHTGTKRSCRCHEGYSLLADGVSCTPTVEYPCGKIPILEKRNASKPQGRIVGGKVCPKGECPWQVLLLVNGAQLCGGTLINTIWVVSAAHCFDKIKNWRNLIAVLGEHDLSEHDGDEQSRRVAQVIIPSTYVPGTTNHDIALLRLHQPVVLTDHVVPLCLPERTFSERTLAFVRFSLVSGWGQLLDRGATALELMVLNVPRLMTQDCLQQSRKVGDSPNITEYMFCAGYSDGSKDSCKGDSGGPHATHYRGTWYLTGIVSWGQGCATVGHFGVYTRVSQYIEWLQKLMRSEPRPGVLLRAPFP
Source text: as §1

[1] = tested on: thrombus formation in the jugular vein; test: Anti-venous thrombotic effect, 125I fibrinogen technique in rabbits; assay type: in vivo
Source text: Also, a thrombosis is detectable, for example, from a patient's conditions symptomatically perceivable by a skilled medical practitioner and well known to the art of medicine. Objectively, various methods are available, including venography, impedance plethysmography, doppler ultrasound and the 1251-fibrinogen test (see, for example, the articles by Kakkar, "Archives of Surgery", 104, page 152 (1972) and by Kelton, J.G. et al, Journal of Clinical Investigation, Vol. 62, pgs. 892-895, (1978)).
The anti-venous thrombotic effect of sodium bisulphite was evaluated in rabbits by using the 1^125 fibrinogen technique described above.
Each rabbit was continuously infused with aqueous sodium bisulphite solution at the rate of 460 mg/kg per hr. (2.97 grams) (animal body weight 2.3 kg).
After 5 hours, the animal was sacrificed and the radioactive fibrinogen accumulated in the damaged jugular vein was determined. The radioactivity in the contra-lateral (undamaged) jugular vein was also determined, to serve as a control. Concurrently, another rabbit was subjected to the same procedure, but was given only a standard sodium chloride solution, as a control.

F VIII = target: T3, F VIII (Homo sapiens, UniProt P00451); test: Factor VIII assay, Example 4; assay type: biochemical; conditions: for F VIII: Control 57
T3 construct: from tissue; host or cells: human plasma
T3 sequence (P00451 20-2351): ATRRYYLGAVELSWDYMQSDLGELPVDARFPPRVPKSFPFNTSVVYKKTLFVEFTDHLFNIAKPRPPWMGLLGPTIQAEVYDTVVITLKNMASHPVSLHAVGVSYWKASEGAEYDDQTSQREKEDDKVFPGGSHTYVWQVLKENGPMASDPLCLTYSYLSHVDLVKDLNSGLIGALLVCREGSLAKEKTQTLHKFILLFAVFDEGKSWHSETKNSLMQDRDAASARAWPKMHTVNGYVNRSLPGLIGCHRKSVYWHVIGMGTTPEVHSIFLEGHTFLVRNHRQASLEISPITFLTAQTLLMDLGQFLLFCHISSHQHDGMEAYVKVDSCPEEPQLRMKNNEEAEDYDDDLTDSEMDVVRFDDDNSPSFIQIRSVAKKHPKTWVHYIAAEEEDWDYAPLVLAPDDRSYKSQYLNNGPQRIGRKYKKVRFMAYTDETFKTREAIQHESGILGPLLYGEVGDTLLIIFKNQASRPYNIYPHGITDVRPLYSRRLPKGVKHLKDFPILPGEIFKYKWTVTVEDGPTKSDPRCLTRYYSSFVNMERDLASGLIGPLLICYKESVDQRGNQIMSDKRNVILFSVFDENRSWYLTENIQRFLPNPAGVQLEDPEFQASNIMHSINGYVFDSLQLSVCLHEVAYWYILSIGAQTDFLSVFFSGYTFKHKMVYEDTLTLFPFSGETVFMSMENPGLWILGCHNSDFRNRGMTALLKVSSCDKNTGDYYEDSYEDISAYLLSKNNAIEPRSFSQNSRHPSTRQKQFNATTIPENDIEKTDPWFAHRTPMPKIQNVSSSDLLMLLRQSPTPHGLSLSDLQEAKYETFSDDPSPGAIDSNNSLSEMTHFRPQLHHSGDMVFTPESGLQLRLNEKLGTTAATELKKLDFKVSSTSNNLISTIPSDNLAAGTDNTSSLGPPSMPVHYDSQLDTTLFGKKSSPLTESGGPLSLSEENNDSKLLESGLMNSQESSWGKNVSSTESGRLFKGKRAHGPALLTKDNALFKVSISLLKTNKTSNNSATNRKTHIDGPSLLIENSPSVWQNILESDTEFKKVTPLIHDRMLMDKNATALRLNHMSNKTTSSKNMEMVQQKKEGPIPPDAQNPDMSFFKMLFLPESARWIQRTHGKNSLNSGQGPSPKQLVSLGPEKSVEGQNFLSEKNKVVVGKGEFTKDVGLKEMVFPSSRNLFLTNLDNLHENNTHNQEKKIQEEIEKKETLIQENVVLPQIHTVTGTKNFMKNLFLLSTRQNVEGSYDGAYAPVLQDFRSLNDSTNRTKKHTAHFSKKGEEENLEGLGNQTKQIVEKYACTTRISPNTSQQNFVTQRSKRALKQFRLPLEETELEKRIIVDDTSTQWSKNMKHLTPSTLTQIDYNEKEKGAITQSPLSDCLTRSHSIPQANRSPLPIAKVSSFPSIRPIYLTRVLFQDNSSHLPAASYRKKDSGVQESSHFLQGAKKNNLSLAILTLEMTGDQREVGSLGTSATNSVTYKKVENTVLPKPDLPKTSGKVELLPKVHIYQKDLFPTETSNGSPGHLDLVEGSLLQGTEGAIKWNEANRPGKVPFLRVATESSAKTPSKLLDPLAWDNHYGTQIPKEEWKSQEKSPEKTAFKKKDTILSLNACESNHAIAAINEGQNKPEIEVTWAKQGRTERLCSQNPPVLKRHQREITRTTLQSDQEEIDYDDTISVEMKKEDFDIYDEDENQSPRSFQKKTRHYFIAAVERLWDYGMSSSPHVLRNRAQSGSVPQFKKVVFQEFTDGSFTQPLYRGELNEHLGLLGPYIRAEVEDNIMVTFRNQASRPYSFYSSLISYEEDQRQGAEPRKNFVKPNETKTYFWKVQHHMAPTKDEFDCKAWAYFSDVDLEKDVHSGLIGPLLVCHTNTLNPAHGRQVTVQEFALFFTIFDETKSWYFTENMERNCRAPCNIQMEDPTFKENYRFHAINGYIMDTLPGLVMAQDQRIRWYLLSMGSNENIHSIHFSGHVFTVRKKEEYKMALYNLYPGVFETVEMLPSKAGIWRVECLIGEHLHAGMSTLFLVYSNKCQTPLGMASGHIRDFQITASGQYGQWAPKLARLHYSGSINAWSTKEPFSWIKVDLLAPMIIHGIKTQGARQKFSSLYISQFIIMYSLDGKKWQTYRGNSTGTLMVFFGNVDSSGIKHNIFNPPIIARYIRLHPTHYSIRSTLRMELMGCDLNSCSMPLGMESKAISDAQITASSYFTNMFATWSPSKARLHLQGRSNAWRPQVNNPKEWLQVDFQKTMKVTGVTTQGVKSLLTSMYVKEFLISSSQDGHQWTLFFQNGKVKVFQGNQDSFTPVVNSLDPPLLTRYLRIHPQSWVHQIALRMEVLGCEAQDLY
Source text: as §1

patients = test: Human use, case histories; assay type: in vivo
Source text: To evaluate the effect of sodium bisulphite in human use (this agent being known to be safe for human consumption), certain patients received this agent. The case history and observations are summarized individually below.
In each case, each patient was provided with a bottle of Solution D, unless otherwise noted, and was instructed to dose himself (or herself, as the case may be) from the bottle so provided at the rate of seven drops to be taken orally with each of his (her) three daily meals. When the contents of one such bottle were thus gradually consumed by an individual patient, another was provided.

[2] = tested on: human platelet-rich plasma; test: Platelet aggregometer, technique of Born, human platelet-rich plasma; assay type: cell-based; conditions: 1 millimole (mM), ADP, collagen, epinephrine and arachidonic acid
Source text: In order to evaluate an antithrombotic effect, it is preferable to withdraw samples of blood from a patient undergoing treatment and measure platelet aggregation. One method is described by Born in Nature 194, pp. 927-929 (1962) and may be used for this purpose, if desired.
That sodium bisulphite is a platelet antiagregatory agent is shown by using a platelet aggregometer based on the technique of Born (above cited).

[3] = tested on: human, rabbit and rat plasma; test: PT (prothrombin time) in plasma in vitro, Example 3; assay type: biochemical
Source text: Sodium, potassium and ammonium bisulphites are found to prolong PT and PTT in a dose-related fashion.
The evaluation procedure used is that described in "Human Blood Coagulation, Haemostasis and Thrombosis", edited by Rosemary Biggs, published by Blackwell Scientific Publications, Oxford, England (2nd Edition), pages 670-705, 1976.

[4] = PTT of coded and various agents, Example 6; assay type: biochemical; conditions: Table V, coded agents 0.5 mg/ml; Control 43.38
Source text: A variety of agents were coded and evaluated under a code designation. Among these compounds, thiouracil, mercaptosuccinic acid, thiosemicarbazide, phenothiazine and sodium thiosulphate were included, so as to compare sodium bisulphite with certain compounds mentioned in USP 4,148,855.
After determination of PT and PTT values, the coded compounds were decoded.
The results are shown in Table V, where mean values of 5 replications in each case are reported. […] This procedure was repeated with some additional compounds on two different days using a different control on each day.

blood = test: Storage of human blood samples with added sodium bisulphite solution; conditions: about 4 cc blood plus about 10 drops of 10 weight percent solution; about 2) years at ambient temperatures
Experimental: Samples of about 4 cc each of blood were prepared. To each of these was added about 10 drops of a 10 weight percent solution of sodium bisulphite in distilled water. Each sample was then sealed into a glass vial.

[5] = Sodium bisulphite 0.01 mg/ml, solution D
[6] = Sodium bisulphite 0.05 mg/ml, solution D
[7] = Sodium bisulphite 0.1 mg/ml, solution D
[8] = Sodium bisulphite 0.5 mg/ml, solution D
[9] = Sodium bisulphite 1.0 mg/ml, solution D
[10] = Sodium bisulphite 5.0 mg/ml, solution D
[11] = chemical grade sodium bisulphite 0.01 mg/ml
[12] = chemical grade sodium bisulphite 0.05 mg/ml
[13] = chemical grade sodium bisulphite 0.1 mg/ml
[14] = chemical grade sodium bisulphite 0.5 mg/ml
[15] = chemical grade sodium bisulphite 1.0 mg/ml
[16] = chemical grade sodium bisulphite 5.0 mg/ml
[17] = Test sequence A, active agent 0.5/ml, control

Sodium bisulphite showed a Prothrombin (Prothrombin; [5]) of 79%, a Prothrombin (Prothrombin; [6]) of 80% and a Prothrombin (Prothrombin; [7]) of 72%. It also gave a Prothrombin (Prothrombin; [8]) of 40%, a Prothrombin (Prothrombin; [9]) of 26% and a Prothrombin (Prothrombin; [10]) of 5%. It also gave a Prothrombin (Prothrombin; [11]) of 88%, a Prothrombin (Prothrombin; [12]) of 82% and a Prothrombin (Prothrombin; [13]) of 75%. It also gave a Prothrombin (Prothrombin; [14]) of 34%, a Prothrombin (Prothrombin; [15]) of 25% and a Prothrombin (Prothrombin; [16]) of 8%. For the same substance, the “effect on Factor II” value (Prothrombin; human plasma) was “mildly affected”, the “effect on Factor VII” value (F VII; 0.5 mg per ml, human plasma) was “significant inhibitory effect” and the “F VII” value (F VII; [5]) was 67%. The “F VII” value (F VII; [6]) was 57%, the “F VII” value (F VII; [7]) was 51% and the “F VII” value (F VII; [8]) was 23%. The “F VII” value (F VII; [9]) was 8%, the “F VII” value (F VII; [10]) was 1% and the “F VII” value (F VII; [11]) was 62. For the same substance, the “F VII” value (F VII; [12]) was 63, the “F VII” value (F VII; [13]) was 53 and the “F VII” value (F VII; [14]) was 17. The “F VII” value (F VII; [15]) was 7, the “F VII” value (F VII; [16]) was 2 and the “radioactivity (radioactive fibrinogen) in damaged jugular vein, control rabbit relative to infused rabbit” value ([1]; continuous infusion 460 mg/kg per hr, 5 hours, control given sodium chloride solution) was 7 times. For the same substance, the “death of other rabbits during infusion” value ([1]; other rabbits similarly evaluated, apparently overdosing) was “died before the experiment was completed”, the “F VIII” value (F VIII; [5]) was 62% and the “F VIII” value (F VIII; [6]) was 68%. The “F VIII” value (F VIII; [7]) was 55%, the “F VIII” value (F VIII; [8]) was 58% and the “F VIII” value (F VIII; [9]) was 29%. The “F VIII” value (F VIII; [10]) was 11%, the “F VIII” value (F VIII; [11]) was 58 and the “F VIII” value (F VIII; [12]) was 55. For the same substance, the “F VIII” value (F VIII; [13]) was 56, the “F VIII” value (F VIII; [14]) was 55 and the “F VIII” value (F VIII; [15]) was 31. For the same substance, the “F VIII” value (F VIII; [16]) was 13, the “effect on Factor VIII” value (F VIII; human plasma) was “mildly affected” and the “Case IV: blood cholesterol value” (patients; after about 5 years, before between 200 and 220 mg %) was “about 144 mg %”. For the same substance, the “Case IV: hypertension, arthritis, arrhythmia, haemorrhoids, dyspepsia, cyanotic fingers and toes, malaise (except diabetes)” value (patients; person, Solutions A, B, C or D orally, within 2-3 months) was “improved”, the platelet aggregation [2] was “abolishes platelet aggregation” and the “prolongation of PT” value ([3]; 0.5 mg/ml, human, rabbit and rat plasma in vitro, dose-related) was “significantly prolong”. For the same substance, the “PT (seconds) Exp. 1 A” value [3, 17] was 22.1 s, the “PT (seconds) Exp.2 A” value [3, 17] was 23.2 s and the “PT (seconds) Exp. 1 A” value ([3]; Test sequence B, active agent 0.5/ml, control) was 25.5 s. The “PTT” value [4] was 114.80 s and the “coagulation of stored blood samples” value (blood) was “have not coagulated”.
